# Experimental data as given in patent US8247211B2, “Glycopeptide antibiotics” (American Cyanamid Company, priority 2001, dated 2012).
# Key:
# Test in all cases: In vitro antibacterial evaluation: minimum inhibitory concentration (MIC), broth dilution method
# Type in all cases: cell-based
# Details in all cases: 18 hours at 35° C.
# Enterococcus sp. = tested on: Enterococcus sp.
# Outline: (§1)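 Test strains, among them recent clinical isolates carrying methicillin, penicillin and/or vancomycin resistance, were inoculated at 5×10^5 CFU/mL. A broth dilution series spanning 64-0.06 μg/mL in Muller-Hinton II […] (NCCLS M7-A2) defined the MIC as the lowest growth-inhibiting concentration.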
# Escherichia coli = tested on: Escherichia coli
# Outline: as §1
# Staphylococcus sp. = tested on: Staphylococcus sp.
# Outline: as §1
# Streptococcus sp. = tested on: Streptococcus sp.
# Outline: as §1
substance,measurement,setting,value
β-O-[(Pentylamino)carbonyl]-cyclo[glycyl-β-methylphenylalanyl-O-(4-O-hexopyranosylhexopyranosyl)tyrosyl-3-(2-iminoimidazolidin-4-yl)seryl-3-(3-hexopyranosyl-2-iminoimidazolidin-4-yl)serylseryl] [Example 251a],MIC Enterococcus avium (GC 4558),Enterococcus sp.; Enterococcus avium (GC 4558),>64 µg/mL
same,MIC Enterococcus faecalis (ATCC 29212),Enterococcus sp.; Enterococcus faecalis (ATCC 29212),>64 µg/mL
same,MIC Enterococcus faecalis (GC 2242),Enterococcus sp.; Enterococcus faecalis (GC 2242),>64 µg/mL
same,MIC Enterococcus faecalis (GC 4552),Enterococcus sp.; Enterococcus faecalis (GC 4552),>64 µg/mL
same,MIC Enterococcus faecalis (GC 4553),Enterococcus sp.; Enterococcus faecalis (GC 4553),>64 µg/mL
same,MIC Enterococcus faecalis (GC 4554),Enterococcus sp.; Enterococcus faecalis (GC 4554),>64 µg/mL
same,MIC Enterococcus faecium (GC 2243),Enterococcus sp.; Enterococcus faecium (GC 2243),>64 µg/mL
same,MIC Enterococcus faecium (GC 4556),Enterococcus sp.; Enterococcus faecium (GC 4556),>64 µg/mL
same,MIC Enterococcus faecium (GC 4557),Enterococcus sp.; Enterococcus faecium (GC 4557),16 µg/mL
same,MIC Enterococcus faecalis (ATCC 29212),"Enterococcus sp.; broth dilution, strain ATCC 29212",>64 µg/mL
same,MIC Enterococcus faecalis (GC 2242),"Enterococcus sp.; broth dilution, strain GC 2242",>64 µg/mL
same,MIC Enterococcus faecium (GC 2243),"Enterococcus sp.; broth dilution, strain GC 2243",>64 µg/mL
same,MIC Enterococcus faecalis (GC 4552),"Enterococcus sp.; broth dilution, strain GC 4552",>64 µg/mL
same,MIC Enterococcus faecalis (GC 4553),"Enterococcus sp.; broth dilution, strain GC 4553",>64 µg/mL
same,MIC Enterococcus faecalis (GC 4554),"Enterococcus sp.; broth dilution, strain GC 4554",>64 µg/mL
same,MIC Enterococcus faecium (GC 4556),"Enterococcus sp.; broth dilution, strain GC 4556",>64 µg/mL
same,MIC Enterococcus faecium (GC 4557),"Enterococcus sp.; broth dilution, strain GC 4557",16 µg/mL
same,MIC Enterococcus avium (GC 4558),"Enterococcus sp.; broth dilution, strain GC 4558",>64 µg/mL
same,MIC Escherichia coli (ATCC 25922),Escherichia coli; Escherichia coli (ATCC 25922),>64 µg/mL
same,MIC Escherichia coli (GC 4559),Escherichia coli; Escherichia coli (GC 4559),>64 µg/mL
same,MIC Escherichia coli (GC 4560),Escherichia coli; Escherichia coli (GC 4560),8 µg/mL
same,MIC Coagulase Negative Staphylococcus (GC 4547),Staphylococcus sp.; Coagulase Negative Staphylococcus (GC 4547),64 µg/mL
same,MIC Coagulase Negative Staphylococcus (GC 4548),Staphylococcus sp.; Coagulase Negative Staphylococcus (GC 4548),64 µg/mL
same,MIC Coagulase Negative Staphylococcus (GC 4549),Staphylococcus sp.; Coagulase Negative Staphylococcus (GC 4549),32 µg/mL
same,MIC Coagulase Negative Staphylococcus (GC 4551),Staphylococcus sp.; Coagulase Negative Staphylococcus (GC 4551),>64 µg/mL
same,MIC Coagulase Negative Staphylococcus (ID-3941),Staphylococcus sp.; Coagulase Negative Staphylococcus (ID-3941),16 µg/mL
same,MIC Staphylococcus aureus (ATCC 29213),Staphylococcus sp.; Staphylococcus aureus (ATCC 29213),>64 µg/mL
same,MIC Staphylococcus aureus (GC 1131),Staphylococcus sp.; Staphylococcus aureus (GC 1131),>64 µg/mL
same,MIC Staphylococcus aureus (GC 4541),Staphylococcus sp.; Staphylococcus aureus (GC 4541),64 µg/mL
same,MIC Staphylococcus aureus (GC 4542),Staphylococcus sp.; Staphylococcus aureus (GC 4542),64 µg/mL
same,MIC Staphylococcus aureus (GC 4544),Staphylococcus sp.; Staphylococcus aureus (GC 4544),>64 µg/mL
same,MIC Staphylococcus aureus (GC 4545),Staphylococcus sp.; Staphylococcus aureus (GC 4545),64 µg/mL
same,MIC Staphylococcus aureus-SMITH (GC 4543),Staphylococcus sp.; Staphylococcus aureus-SMITH (GC 4543),64 µg/mL
same,MIC Staphylococcus haemolyticus (GC 4546),Staphylococcus sp.; Staphylococcus haemolyticus (GC 4546),64 µg/mL
same,MIC Staphylococcus aureus (ATCC 29213),"Staphylococcus sp.; broth dilution, strain ATCC 29213",>64 µg/mL
same,MIC Staphylococcus aureus (GC 1131),"Staphylococcus sp.; broth dilution, strain GC 1131",>64 µg/mL
same,MIC Staphylococcus aureus (GC 4541),"Staphylococcus sp.; broth dilution, strain GC 4541",64 µg/mL
same,MIC Staphylococcus aureus (GC 4542),"Staphylococcus sp.; broth dilution, strain GC 4542",64 µg/mL
same,MIC Staphylococcus aureus-SMITH (GC 4543),"Staphylococcus sp.; broth dilution, strain GC 4543",64 µg/mL
same,MIC Staphylococcus aureus (GC 4544),"Staphylococcus sp.; broth dilution, strain GC 4544",>64 µg/mL
same,MIC Staphylococcus aureus (GC 4545),"Staphylococcus sp.; broth dilution, strain GC 4545",64 µg/mL
same,MIC Staphylococcus haemolyticus (GC 4546),"Staphylococcus sp.; broth dilution, strain GC 4546",64 µg/mL
same,MIC Coagulase Negative Staphylococcus (GC 4547),"Staphylococcus sp.; broth dilution, strain GC 4547",64 µg/mL
same,MIC Coagulase Negative Staphylococcus (GC 4548),"Staphylococcus sp.; broth dilution, strain GC 4548",64 µg/mL
same,MIC Coagulase Negative Staphylococcus (GC 4549),"Staphylococcus sp.; broth dilution, strain GC 4549",32 µg/mL
same,MIC Coagulase Negative Staphylococcus (GC 4551),"Staphylococcus sp.; broth dilution, strain GC 4551",>64 µg/mL
same,MIC Coagulase Negative Staphylococcus (ID-3941),"Staphylococcus sp.; broth dilution, strain ID-3941",16 µg/mL
same,MIC Streptococcus agalactiae (GC 4564),Streptococcus sp.; Streptococcus agalactiae (GC 4564),32 µg/mL
same,MIC Streptococcus pneumoniae (GC 4565),Streptococcus sp.; Streptococcus pneumoniae (GC 4565),8 µg/mL
same,MIC Streptococcus pyogenes (ID-3187),Streptococcus sp.; Streptococcus pyogenes (ID-3187),16 µg/mL
same,MIC Streptococcus agalactiae (GC 4564),"Streptococcus sp.; broth dilution, strain GC 4564",32 µg/mL
same,MIC Streptococcus pneumoniae (GC 4565),"Streptococcus sp.; broth dilution, strain GC 4565",8 µg/mL
same,MIC Streptococcus pyogenes (ID-3187),"Streptococcus sp.; broth dilution, strain ID-3187",16 µg/mL
